Patent US11229685B2, “Fungal iron acquisition inhibitors and uses thereof” (priority 2013, dated 2022)
Read-outs that look alike come from different tables or passages of the source.

Legend:
A. fumigatus = experiment: In vitro human neutrophil:hyphae growth inhibition assay (calcofluor white fluorometry); assay type: cell-based, Aspergillus fumigatus; conditions: for growth of A. fumigatus: incubation in media for 16 h
Experimental: (§1) FIGS. 8(A-G) illustrate a schematic drawing, images, and graphs showing the effect of topical simvastatin and deriprone on fungal infection. A. Statin targeting of fungal HMG-CoA reductase in siderophore biosynthesis. B, C. Effect of statins and iron chelators on growth of A. fumigatus and F. oxysporum in vitro. B. Simvastatin, lovastatin, deferiprone, or deferroxamine were added to growing cultures of A. fumigatus or C. F. oxysporum for 16 h, and hyphal growth was quantified by calcofluor white. D. Growth of A. fumigatus incubated with these compounds in the absence (black bars) or presence (gray bars) of human neutrophils by calcofluor white quantification (data are mean+/−SEM of five replicate wells) E. C57BL/6 mice were infected with A. fumigatus and at 0 and 6 h post-infection 13.4 μg of simvastatin (Sv), deferiprone (11.1 μg), deferroxamine (52.5 μg), Sv+ deferiprone, or Sv+ deferroxamine was applied topically to infected corneas and eyes were imaged at 24 h post-infection. F. Metamorph image analysis was used to quantify fungal dsRed expression and G. eyes were homogenized for CFU analysis. B-D: data are mean+/−SEM of five replicate wells; F, G: data points represent individual corneas.
Human neutrophils were isolated from normal, healthy donors using Ficoll-Paque Plus (GE) density centrifugation as described. Isolated conidia from each A. fumigatus mutant were cultured in 200 μl SDA media (12,500/well) in black-wall 96 well plates with an optically clear bottom (CoStar 3720) until early germ tubes were observed (4-6 h). Wells were washed twice with sterile ddH2O and incubated 16 h with either RPMI media (+ Control), PBS (− Control), or a sublethal dose of human peripheral blood neutrophils in RPMI (0.5−1*10^5/well). At 16 h post-exposure, plates were washed once and stained with 50 μl calcofluor white stain (Binds chitin; Fluka 18909) for 5 min in the dark. Subsequently, plates were washed three times with ddH2O and quantified by fluorometry (360/440 nm; Synergy HT; Biotek).
HMG CoA reductase is required for mevalonate production and can be targeted by statins resulting in decreased siderophore biosynthesis (FIG. 8A). To determine the effect of blocking this pathway on fungal growth, A. fumigatus and Fusarium oxysporum were incubated in media with simvastatin and lovastatin, or with the iron chelators, deferiprone and deferroxamine.

[1] = tested on: A. fumigatus strain dsRed; assay type: in vivo, Aspergillus fumigatus; conditions: C57BL/6 mice
Experimental: Aspergillus and Fusarium strains were cultured as described above for 2-3 days, and fresh conidia were disrupted with a bacterial L-loop, harvested in 5 ml PBS, and filtered through sterile PBS soaked cotton gauze in a 10 ml syringe to obtain pure conidial suspensions. Conidia were quantified using a hemocytometer and adjusted in PBS to a final stock solution of 15-20,000 conidia/μl. Mice were anaesthetized with 1.25% 2,2,2-tri-bromoethanol in PBS. The corneal epithelium was abraded using a 30-gauge needle, through which a 2 μl injection containing conidia was released into the corneal stroma using a 33-gauge Hamilton syringe. Mice were examined daily under a stereomicroscope for corneal opacification, and quantified by image analysis using Metamorph software as described. At each time point, animals were euthanized by CO2 asphyxiation, and eyes were either placed in 10% formalin and embedded in paraffin, sectioned at 5 μm intervals and stained with periodic acid schiff and hematoxylin (PASH), or were placed in 1 ml of sterile PBS, homogenized and colony forming units (CFU) were quantified by manual count.
For topical drug delivery, compounds were suspended in a commercial eye drop formulation (Alcon laboratories) or in PBS and 8 μl applied topically at 0 h and 6 h post-infection. Lactoferrin (1.25 mg/ml), deferiprone (10 mM), deferroxamine (10 mM), and simvastatin (4 mM) were purchased from Sigma Aldrich (St. Louis, Mo.). BEC (28 mM) was obtained from Cayman chemicals (Ann Arbor, Mich.). E. coli-expressed recombinant human lipocalin-1 was purified as described previously and applied topically at 2 mg/ml. Iron-dextran and deferroxamine were both purchased from Sigma and administered systemically to mice via daily I.P. injections of 5 mg starting at day −2 until mice were euthanized. All animals were bred under specific pathogen-free conditions and maintained according to institutional guidelines.
Growth of the RFP expressing A. fumigatus strain in the cornea was detected using fluorescent microscopy and quantified by Metamorph image analysis. For assessment of fungal viability, whole eyes were homogenized under sterile conditions in 1 ml PBS, using the Mixer Mill MM300 (Retsch) at 33 Hz for 4 min. Subsequently, 100 μl aliquots were plated onto bacteriologic-grade sabouraud dextrose agar plates, incubated for 24 h at 37° C. (Aspergillus) or at 30° C. (Fusarium and Alternaria), and the number of CFUs was determined by direct counting.

F. oxysporum = experiment: In vitro hyphal growth of F. oxysporum with statins and iron chelators (calcofluor white); assay type: cell-based, Fusarium oxysporum; conditions: incubation in media for 16 h; b217 says results similar to A. fumigatus (less growth with statins and deferiprone, not deferroxamine)
Experimental: as §1, with “B-D: data are mean+/−SEM of five replicate wells; F, G: data points represent individual corneas.” left out
Human neutrophils were isolated from normal, healthy donors using Ficoll-Paque Plus (GE) density centrifugation as described. […] Subsequently, plates were washed three times with ddH2O and quantified by fluorometry (360/440 nm; Synergy HT; Biotek). […]

[2] = plus human neutrophils, vs neutrophils alone
[3] = topical 16 μg/8 μl at 0 h and 6 h after infection, vs infected mice without exogenous Lcn-1
[4] = topical 10.4 μg in 8 μl at 0 h and 6 h post-infection, 24 h post-infection, vs vehicle

Cc1c(O)c(=O)ccn1C [deferiprone, 1,2 dimethyl-3-hydroxypyrid-4-1]
growth of A. fumigatus (A. fumigatus; no neutrophils): significantly less growth | A. fumigatus growth in the presence of human neutrophils (A. fumigatus; [2]): inhibited | fungal dsRed emission ([1]; topical at 0 and 6 h post-infection (simvastatin 13.4 μg, deferiprone 11.1 μg, deferroxamine 52.5 μg), 24 h, vs vehicle-treated mice): significantly less

CC[C@H](C)C(=O)O[C@H]1C[C@@H](C)C=C2C=C[C@H](C)[C@H](CC[C@@H]3C[C@@H](O)CC(=O)O3)[C@H]21 [lovastatin]
growth of Fusarium oxysporum (F. oxysporum): significantly less fungal cell growth | growth of A. fumigatus (A. fumigatus; no neutrophils): significantly less growth | A. fumigatus growth in the presence of human neutrophils (A. fumigatus; [2]): inhibited

Lcn-1: E. coli-expressed recombinant human lipocalin-1, siderophore binding protein
A. fumigatus growth in the presence of neutrophils (A. fumigatus; 4 μg/ml plus human neutrophils, vs neutrophils alone or Lcn-1 alone): significantly less than in the presence of neutrophils alone or with Lcn-1 alone | fungal growth (A. fumigatus; 4 μg/ml, absence of neutrophils): significantly less | fungal growth (A. fumigatus; 40 μg/ml, absence of neutrophils): significantly less | CFU [1, 3]: significantly less | fungal dsRed [1, 3]: significantly less

N=C(NO)NCC[C@H](N)C(=O)O [nNOHA, N^ω-Hydroxy-nor-L-arginine]
fungal growth (A. fumigatus; 100 μM, no neutrophils, vs RPMI alone): significantly lower than in RPMI alone | fungal growth when incubated with neutrophils (A. fumigatus; plus human neutrophils, vs neutrophils alone, concentration not given): not significantly different from neutrophils alone

lactoferrin
CFU [1, 4]: significantly less | fungal mass (dsRed) [1, 4]: significantly less
